# Measured values: patent US7807648B2, “G-rich polynucleotides for the treatment of Huntington's Disease” (University of Delaware, priority 2005, dated 2010)
# “Also recorded” adds a separate entry of the source.
# Columns and labels:
# GST-Q58-Htn = molecular target: T1, GST-Q58-Htn (Homo sapiens, UniProt P42858, INS38QQQQQQQQQQQQQQQQQQQQQQQQQQQQQQQQQQQQQ); assay: Biochemical/immunoblotting filter assay of mutant Htt fragment aggregation; conditions: for inhibitory activity on aggregation (overall statement): concentration not given, 0.5-60 μM tested; for inhibitory activity on aggregation (overall statement) / inhibition of aggregate formation: 24 h; for inhibition of Htt aggregation: 1-5 μM concentrations, dose curve FIG. 4; for inhibition of aggregate formation: ODN at 20 μM or 40 μM, FIG. 5/6; for reproducible inhibitory activity: biochemical assay
# T1 construct: this fragment consists of the amino terminal 171 amino acids with a tract of 58 glutamine residues fused to GST; GST (N, cleaved yes)
# T1 sequence (P42858 with tags, fused parts or gaps with the stated changes limits assumed): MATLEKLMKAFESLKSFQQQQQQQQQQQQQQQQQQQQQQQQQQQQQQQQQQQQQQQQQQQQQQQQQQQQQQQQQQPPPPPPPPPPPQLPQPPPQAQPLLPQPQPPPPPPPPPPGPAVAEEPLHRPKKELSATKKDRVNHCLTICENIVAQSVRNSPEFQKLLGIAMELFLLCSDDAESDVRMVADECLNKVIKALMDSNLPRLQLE
# [1] = test system: Httexon1-eGFP fusion protein aggregation in HEK293 cells; assay: Aggregate formation (green fluorescent foci) in HEK293 cells transfected with p72Q, microscopy; type: cell-based, human; conditions: for inhibition of aggregate formation (number of green fluorescent foci): 150-750 nM; for reproducible inhibitory activity: cell-based assay
# polyQ aggregates = conditions: cited from earlier work; for inhibition of the aggregation process: R6/2 mouse model; for toxicity: mouse, in vivo
# [2] = test system: aggregated Htt-eGFP in HEK293 cells; assay: FACS analysis of aggregation in HEK293 cells transfected with p72Q; type: cell-based, human; conditions: 1 μM and 2.5 μM, 48 hours, FIG. 13
# [3] = co-transfected with p72Q, 48 hours
molecule,measurement,setting,value
5′-GGGGGTGGGGGTGGGGTGGGGGT-3′ [T40216],inhibitory activity on aggregation (overall statement),GST-Q58-Htn,effective inhibitors of aggregation; also recorded: capable of inhibiting GST-Q58-Htn aggregation
5′-GGGTGGGTGGGTGGGT-3′ [T30923],inhibition of aggregate formation (number of green fluorescent foci),[1]; [3],could not fully substitute for HDG
same,dose response of aggregation inhibition,GST-Q58-Htn,dose response visible
same,inhibitory activity on aggregation (overall statement),GST-Q58-Htn,effective inhibitors of aggregation; also recorded: capable of inhibiting GST-Q58-Htn aggregation
"5′-GGTGGTGGTGGTTGTGGTGGTGGTGG-3′ (DNA GGTGGTGGTGGTTGTGGTGGTGGTGG; listed as DNA, chemistry not given here) [GRO26B]",inhibitory activity on aggregation (overall statement),GST-Q58-Htn,inhibit Huntington aggregation
5′-TTTGGTGGTGGTGGTTGTGGTGGTGGTGG-3′ [GRO29A],inhibitory activity on aggregation (overall statement),GST-Q58-Htn,inhibit Huntington aggregation
Oc1c(I)cc(Cl)c2cccnc12 [Clioquinol],inhibition of the aggregation process,polyQ aggregates,inhibit the aggregation process
same,toxicity,polyQ aggregates,neurotoxicity
Nc1c(/N=N/c2ccc(-c3ccc(/N=N/c4cc(S(=O)(=O)O)c5ccccc5c4N)cc3)cc2)cc(S(=O)(=O)O)c2ccccc12 [Congo Red],reduction of green fluorescent foci,"[1]; Congo Red added concurrently with p72Q (0.2 μM or 1 μM), higher dosage, FIG. 8",significant reduction
same,inhibition of aggregate formation (number of green fluorescent foci),[1]; [3],displayed effects similar to HDG
same,inhibition of aggregate formation,"[1]; lower dosage of Congo Red (0.2 μM or 1 μM), FIG. 8",only partially inhibited
same,inhibition of the aggregation process,polyQ aggregates,inhibit the aggregation process
same,toxicity,polyQ aggregates,neurotoxicity
"HDA: 20-mer with all As (DNA AAAAAAAAAAAAAAAAAAAA; listed as DNA, chemistry not given here)",reproducible inhibitory activity,[1],None
same,inhibition of aggregate formation (number of green fluorescent foci),[1]; [3],little effect on the number of aggregates; also recorded: does not appear to inhibit aggregate formation
same,peak of high intensity eGFP (aggregates),[2],little detectable change; also recorded: no significant reduction in aggregates
same,inhibition of Htt aggregation,GST-Q58-Htn,unable to detect any Htt aggregate inhibition
same,inhibition of aggregate formation,GST-Q58-Htn,unable to inhibit aggregate formation; also recorded: no inhibition of aggregation was observed
same,reproducible inhibitory activity,GST-Q58-Htn,None
"HDG 20/2: HDG 20-mer wherein every other G was substituted with a T residue (DNA GTGTGTGTGTGTGTGTGTGT; listed as DNA, chemistry not given here)",activity of HDG variants with T residues inserted,"[1]; co-transfected with p72Q, 48 hours, FIG. 11",None of these molecules were found to be effective inhibitors of aggregation; also recorded: reduced significantly; also recorded: low level of activity
HDT: 20-mer with all T's (DNA TTTTTTTTTTTTTTTTTTTT),reproducible inhibitory activity,[1],None
same,inhibition of Htt aggregation,GST-Q58-Htn,unable to detect any Htt aggregate inhibition
same,inhibition of aggregate formation,GST-Q58-Htn,unable to inhibit aggregate formation; also recorded: no inhibition of aggregation was observed
same,reproducible inhibitory activity,GST-Q58-Htn,None
